# Earlier results in PMC4360375 (Journal of Medicinal Chemistry, 2015).
# Tested on: GABA uptake, rat synaptosome
# Conditions: literature data set; ref 10.1016/S0968-0896(01)00148-1; cited from earlier work
row,Compound,pIC50
1,"O=C(O)[C@@H]1CCCN(CCON=C(Cc2ccccc2)Cc2ccccc2)C1 [An_2001/6_19, O(\N=C(\Cc1ccccc1)/Cc1ccccc1)CCN1C[C@@H](CCC1)C(O)=O]",5.987
2,"O=C(O)[C@@H]1CCCN(CCOCCc2ccccc2Cc2ccccc2)C1 [An_2001/6_40, O(CCc1ccccc1Cc1ccccc1)CCN1C[C@@H](CCC1)C(O)=O]",7
3,"O=C(O)[C@@H]1CCCN(CCO/N=C(/Cc2ccccc2F)c2ccccc2F)C1 [An_2001/6_18, Fc1ccccc1C\C(=N\OCCN1C[C@@H](CCC1)C(O)=O)\c1ccccc1F]",7.097
4,"O=C(O)[C@@H]1CCCN(CCOCc2cccc(Cc3ccccc3)c2)C1 [An_2001/6_38, O(Cc1cc(ccc1)Cc1ccccc1)CCN1C[C@@H](CCC1)C(O)=O]",5.523
5,"O=C(O)[C@@H]1CCCN(CCOCc2ccccc2-c2ccccc2)C1 [An_2001/6_35, O(Cc1ccccc1-c1ccccc1)CCN1C[C@@H](CCC1)C(O)=O]",6.476
6,"O=C(O)[C@@H]1CCCN(CCO/N=C2\c3ccccc3CC[C@@H]2c2ccccc2)C1 [An_2001/6_27, O(\N=C\1/c2c(CC[C@@H]/1c1ccccc1)cccc2)CCN1C[C@@H](CCC1)C(O)=O]",6.058
7,"CC(C)CN(CCOCCN1CCC[C@@H](C(=O)O)C1)c1ccc(F)cc1Cl [An_2001/6_45, Clc1cc(F)ccc1N(CC(C)C)CCOCCN1C[C@@H](CCC1)C(O)=O]",6.827
8,"O=C(O)[C@@H]1CCCN(CCOc2ccccc2Cc2ccccc2)C1 [An_2001/6_34, O(CCN1C[C@@H](CCC1)C(O)=O)c1ccccc1Cc1ccccc1]",5.158

# Same assay, conditions: literature data set; ref 10.1021/jm00064a005; cited from earlier work
row,Compound,pIC50
1,"Cc1cc(Cl)ccc1/C(=C\CCN1CCC[C@@H](C(=O)O)C1)c1sccc1C [An_1993_44, Clc1cc(C)c(cc1)\C(=C/CCN1C[C@@H](CCC1)C(O)=O)\c1sccc1C]",6.959
2,"Cc1ccsc1/C(=C/CCN1CCC=C(C(=O)O)C1)c1cccs1 [An_1993_42, s1ccc(C)c1\C(=C\CCN1CC(=CCC1)C(O)=O)\c1sccc1]",6.959
3,"Cc1ccsc1C(=CCCN1CCC=C(C(=O)O)C1)c1sccc1C [An_1993_30, s1ccc(C)c1\C(=C\CCN1CC(=CCC1)C(O)=O)\c1sccc1C]",6.854
4,"Cc1ccsc1/C(=C/CCN1CCC[C@@H](C(=O)O)C1)c1cccs1 [An_1993_40, s1ccc(C)c1\C(=C\CCN1C[C@@H](CCC1)C(O)=O)\c1sccc1]",7.222
5,"Cc1ccccc1/C(=C\CCN1CCC[C@H](C(=O)O)C1)c1sccc1C [An_1993_32, s1ccc(C)c1/C(=C/CCN1C[C@H](CCC1)C(O)=O)/c1ccccc1C]",6.42

# Same assay, conditions: literature data set; ref 10.1021/jm980492e; cited from earlier work
row,Compound,pIC50
1,"Cc1ccccc1C(=CCOCCN1CCC[C@@H](C(=O)O)C1)c1ccccc1C [An_1999/4_(R)-23, O(CCN1C[C@@H](CCC1)C(O)=O)C\C=C(\c1ccccc1C)/c1ccccc1C]",6.959
2,"O=C(O)[C@@H]1CCCN(CCOCC=C(c2ccc(Cl)cc2)c2ccc(Cl)cc2)C1 [An_1999/4_(R)-25, Clc1ccc(cc1)\C(=C\COCCN1C[C@@H](CCC1)C(O)=O)\c1ccc(Cl)cc1]",6.018
3,"O=C(O)C1=CCCN(CCOCCC(c2ccccc2)c2ccccc2)C1 [An_1999/4_30, O(CCC(c1ccccc1)c1ccccc1)CCN1CC(=CCC1)C(O)=O]",7.319
4,"O=C(O)[C@@H]1CCCN(CCOCCC(c2ccc(F)cc2)c2ccc(F)cc2)C1 [An_1999/4_(R)-33, Fc1ccc(cc1)C(CCOCCN1C[C@@H](CCC1)C(O)=O)c1ccc(F)cc1]",6.167
5,"Cc1ccccc1[C@H](CCOCCN1CCC[C@@H](C(=O)O)C1)c1ccccc1 [An_1999/4_(R)-31, O(CC[C@@H](c1ccccc1C)c1ccccc1)CCN1C[C@@H](CCC1)C(O)=O]",7.066
6,"O=C(O)[C@@H]1CCCN(CCCCCCN(c2ccccc2)c2ccccc2)C1 [An_1999/4_(R)-13, OC(=O)[C@@H]1CCCN(C1)CCCCCCN(c1ccccc1)c1ccccc1]",6.18
7,"O=C(O)[C@@H]1CCCN(CCOCCN(c2ccccc2)c2ccccc2)C1 [An_1999/4_(R)-17, O(CCN1C[C@@H](CCC1)C(O)=O)CCN(c1ccccc1)c1ccccc1]",7.046

# Same assay, conditions: literature data set; ref 10.1021/jm981027k; cited from earlier work
row,Compound,pIC50
1,"O=C(O)[C@@H]1CCCN(CCON=C(c2ccc(F)cc2F)c2ccc(F)cc2F)C1 [An_1999/3_68, Fc1cc(F)ccc1\C(=N\OCCN1C[C@@H](CCC1)C(O)=O)\c1ccc(F)cc1F]",7
2,"O=C(O)[C@@H]1CCCN(CCO/N=C(/c2cccc(F)c2)c2ccccc2F)C1 [An_1999/3_75, Fc1ccccc1\C(=N/OCCN1C[C@@H](CCC1)C(O)=O)\c1cc(F)ccc1]",6.658
3,"Cc1ccccc1/C(=C\OCCN1CCC[C@@H](C(=O)O)C1)c1ccccc1 [An_1999/3_96, O(\C=C(/c1ccccc1C)\c1ccccc1)CCN1C[C@@H](CCC1)C(O)=O]",7.699
4,"O=C(O)[C@@H]1CCCN(CCON=C(c2cccc(Cl)c2)c2cccc(Cl)c2)C1 [An_1999/3_93, Clc1cc(ccc1)\C(=N\OCCN1C[C@@H](CCC1)C(O)=O)\c1cc(Cl)ccc1]",6.509
5,"O=C(O)[C@H]1CCCN(CCON=C(c2ccccc2)c2ccccc2)C1 [An_1999/3_61, O(\N=C(\c1ccccc1)/c1ccccc1)CCN1C[C@H](CCC1)C(O)=O]",6.377
6,"O=C(O)[C@@H]1CCCN(CCO/C=C(\c2ccccc2)c2ccccc2Cl)C1 [An_1999/3_73, Clc1ccccc1\C(=C\OCCN1C[C@@H](CCC1)C(O)=O)\c1ccccc1]",7.921
7,"CN1CCC[C@@H]1/C(=N\OCCN1CCC[C@@H](C(=O)O)C1)c1ccccc1 [An_1999/3_95, O(\N=C(/[C@@H]1N(CCC1)C)\c1ccccc1)CCN1C[C@@H](CCC1)C(O)=O]",7.222
8,"Cc1ccccc1/C(=C/OCCN1CCC=C(C(=O)O)C1)c1cccc(Cl)c1 [An_1999/3_78, Clc1cc(ccc1)/C(=C\OCCN1CC(=CCC1)C(O)=O)/c1ccccc1C]",7.222
9,"COc1cccc(/C(=N/OCCN2CCC[C@@H](C(=O)O)C2)c2sccc2C)c1 [An_1999/3_86, s1ccc(C)c1\C(=N/OCCN1C[C@@H](CCC1)C(O)=O)\c1cc(OC)ccc1]",7.046
10,"Cc1ccsc1C(=COCCN1CCC[C@@H](C(=O)O)C1)c1sccc1C [compound 6, s1ccc(C)c1\C(=C\OCCN1C[C@@H](CCC1)C(O)=O)\c1sccc1C]",7.854
11,"CCc1ccsc1C(=NOCCN1CCC[C@@H](C(=O)O)C1)c1sccc1CC [An_1999/3_87, s1ccc(CC)c1\C(=N\OCCN1C[C@@H](CCC1)C(O)=O)\c1sccc1CC]",7.046
12,"Cc1ccccc1/C(=C\OCCN1CCC[C@@H](C(=O)O)C1)c1ccc(F)cc1C [An_1999/3_99, Fc1cc(C)c(cc1)\C(=C\OCCN1C[C@@H](CCC1)C(O)=O)\c1ccccc1C]",7.523
13,"Cc1csc(/C(=N/OCCN2CCC[C@H](C(=O)O)C2)c2ccccc2C)c1 [An_1999/3_21, s1cc(cc1/C(=N/OCCN1C[C@H](CCC1)C(O)=O)/c1ccccc1C)C]",5.062
14,"O=C(O)[C@@H]1CCCN(CCOC=C(c2ccc(F)cc2F)c2ccc(F)cc2F)C1 [An_1999/3_79, Fc1cc(F)ccc1\C(=C\OCCN1C[C@@H](CCC1)C(O)=O)\c1ccc(F)cc1F]",6.886
15,"Cc1csc(/C(=N\OCCN2CCC[C@H](C(=O)O)C2)c2ccccc2C)c1 [An_1999/3_23, s1cc(cc1/C(=N\OCCN1C[C@H](CCC1)C(O)=O)/c1ccccc1C)C]",5.917
16,"Cc1csc(/C(=N/OCCN2CCC[C@@H](C(=O)O)C2)c2ccccc2C)c1 [An_1999/3_20, s1cc(cc1/C(=N/OCCN1C[C@@H](CCC1)C(O)=O)/c1ccccc1C)C]",6.108
17,"O=C(O)[C@@H]1CCCN(CCON=C(c2ccccc2Cl)c2ccccc2Cl)C1 [An_1999/3_74, Clc1ccccc1\C(=N\OCCN1C[C@@H](CCC1)C(O)=O)\c1ccccc1Cl]",7.398
18,"O=C(O)C1=CCCN(CCOC=C(c2cccc(F)c2)c2cccc(F)c2)C1 [An_1999/3_105, Fc1cc(ccc1)\C(=C\OCCN1CC(=CCC1)C(O)=O)\c1cc(F)ccc1]",6.456
19,"Cc1cc(F)ccc1C(=COCCN1CCC[C@@H](C(=O)O)C1)c1ccc(F)cc1C [An_1999/3_77, Fc1cc(C)c(cc1)\C(=C\OCCN1C[C@@H](CCC1)C(O)=O)\c1ccc(F)cc1C]",7.222
20,"Cc1csc(/C(=N\OCCN2CCC[C@@H](C(=O)O)C2)c2ccccc2C)c1 [An_1999/3_22, s1cc(cc1/C(=N\OCCN1C[C@@H](CCC1)C(O)=O)/c1ccccc1C)C]",6.585
21,"Cc1ccccc1/C(=C/OCCN1CCC[C@@H](C(=O)O)C1)c1sccc1C [An_1999/3_69, s1ccc(C)c1/C(=C\OCCN1C[C@@H](CCC1)C(O)=O)/c1ccccc1C]",7.77

# Same assay, conditions: literature data set; ref 10.1021/jm990513k; cited from earlier work
row,Compound,pIC50
1,"O=C(O)[C@@H]1CCCN(CCOC/C=C2\c3ccccc3CCc3ccc(Cl)cc32)C1 [An_2001/5_35, Clc1cc\2c(CCc3c(cccc3)/C/2=C\COCCN2C[C@@H](CCC2)C(O)=O)cc1]",5.603
2,"O=C(O)[C@@H]1CCCN(CCOCCN2c3cc(Cl)ccc3CCc3ccc(Cl)cc32)C1 [An_2001/5_28, Clc1cc2N(c3cc(Cl)ccc3CCc2cc1)CCOCCN1C[C@@H](CCC1)C(O)=O]",7.155
3,"O=C(O)[C@H]1CCCN(CCOCCN2c3ccccc3Sc3ccc(C(F)(F)F)cc32)C1 [An_2001/5_22, S1c2c(N(c3c1cccc3)CCOCCN1C[C@H](CCC1)C(O)=O)cc(cc2)C(F)(F)F]",6.979
4,"O=C(O)[C@@H]1CCCN(CCOCCn2c3ccccc3c3ccccc32)C1 [An_2001/5_19, O(CCN1C[C@@H](CCC1)C(O)=O)CCn1c2c(c3c1cccc3)cccc2]",4.398
5,"O=C(O)[C@@H]1CCCN(CCCOCC=C2c3ccccc3CCc3ccccc32)C1 [An_2001/5_36, O(CCCN1C[C@@H](CCC1)C(O)=O)C\C=C/1\c2c(CCc3c\1cccc3)cccc2]",6.337
6,"O=C(O)[C@@H]1CCCN(CCOCCN2c3ccccc3CCc3ccc(F)cc32)C1 [An_2001/5_29, Fc1cc2N(c3c(CCc2cc1)cccc3)CCOCCN1C[C@@H](CCC1)C(O)=O]",6.577
7,"O=C(O)[C@@H]1CCCN(CCOCCN2c3ccccc3CCc3ccccc32)C1 [An_2001/5_23, O(CCN1C[C@@H](CCC1)C(O)=O)CCN1c2c(CCc3c1cccc3)cccc2]",6.745
8,"O=C(O)C1=CCCN(CCOCCC2c3ccccc3CCc3ccccc32)C1 [An_2001/5_38, O(CCC1c2c(CCc3c1cccc3)cccc2)CCN1CC(=CCC1)C(O)=O]",5.921
